Data as given in PMC9788324, “In Vitro and In Silico Pharmacological and Cosmeceutical Potential of Ten Essential Oils from Aromatic Medicinal Plants from the Mascarene Islands” (Molecules, 2022).

Columns and labels:
[1] = target: T1, collagenase from Clostridium histolyticum (Type IV); test: fluorescence assay, DQ gelatin-fluorescein ([…] nm); assay type: biochemical, Hathewaya histolytica; conditions: DQ gelatin substrate, 0.2 U/mL enzyme, 15 min preincubation at 37 °C; positive control, printed as '1,1 Phenanthroline' in table
T1 construct: gene colG; native commercial collagenase from EnzChek Gelatinase/Collagenase Assay Kit; ColG/ColH not distinguished; docking used PDB 2Y6I, not the assay protein

[2] = target: T2, porcine pancreatic elastase (Sus scrofa, UniProt P00772); test: chromogenic assay, absorbance at […] nm; assay type: biochemical; conditions: read-out: Elastase Inhibition / IC50 (μg/mL) (converted)
T2 construct: gene CELA1; commercial native pancreatic enzyme (Sigma-Aldrich); mature form; docking used PDB 1BRU (recalled as porcine elastase 2), not the assay protein
T2 sequence (P00772 27-266): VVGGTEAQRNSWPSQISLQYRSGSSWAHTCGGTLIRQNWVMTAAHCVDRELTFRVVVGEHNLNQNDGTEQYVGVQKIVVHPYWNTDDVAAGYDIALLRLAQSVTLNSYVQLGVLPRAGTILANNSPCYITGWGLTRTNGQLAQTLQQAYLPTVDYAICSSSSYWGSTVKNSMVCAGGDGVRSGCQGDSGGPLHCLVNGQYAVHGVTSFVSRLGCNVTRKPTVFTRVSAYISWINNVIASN

SMILES | Collagenase Inhibition / IC50 (mg/mL) [1] | IC50 [2] [µM]
c1cnc2c(c1)ccc1cccnc12 [1,10-phenanthroline] | 4.20 × 10^−3 ± 0.00 mg/mL | 
C[C@H]1[C@H](C)CC[C@]2(C(=O)O)CC[C@]3(C)C(=CC[C@@H]4[C@@]5(C)CC[C@H](O)C(C)(C)[C@@H]5CC[C@]43C)[C@H]12 [Ursolic acid] |  | 22.1
